Laboratory results published in ChEMBL document CHEMBL5465560, “Selectivity Literature for EUbOPEN Chemogenomic Library” (2024).

Assays:
[1] = molecular target: Casein kinase I isoform gamma-1 (Homo sapiens) (UniProt Q9HCP0); settings: at 10 µM
[2] = molecular target: T1, NUAK family SNF1-like kinase 1 (Homo sapiens) (UniProt O60285); test: Selectivity interaction (Kinase panel (Carna Biosciences)) EUB0001542aTs NUAK1; settings: at 1 µM
T1 sequence (whole entry): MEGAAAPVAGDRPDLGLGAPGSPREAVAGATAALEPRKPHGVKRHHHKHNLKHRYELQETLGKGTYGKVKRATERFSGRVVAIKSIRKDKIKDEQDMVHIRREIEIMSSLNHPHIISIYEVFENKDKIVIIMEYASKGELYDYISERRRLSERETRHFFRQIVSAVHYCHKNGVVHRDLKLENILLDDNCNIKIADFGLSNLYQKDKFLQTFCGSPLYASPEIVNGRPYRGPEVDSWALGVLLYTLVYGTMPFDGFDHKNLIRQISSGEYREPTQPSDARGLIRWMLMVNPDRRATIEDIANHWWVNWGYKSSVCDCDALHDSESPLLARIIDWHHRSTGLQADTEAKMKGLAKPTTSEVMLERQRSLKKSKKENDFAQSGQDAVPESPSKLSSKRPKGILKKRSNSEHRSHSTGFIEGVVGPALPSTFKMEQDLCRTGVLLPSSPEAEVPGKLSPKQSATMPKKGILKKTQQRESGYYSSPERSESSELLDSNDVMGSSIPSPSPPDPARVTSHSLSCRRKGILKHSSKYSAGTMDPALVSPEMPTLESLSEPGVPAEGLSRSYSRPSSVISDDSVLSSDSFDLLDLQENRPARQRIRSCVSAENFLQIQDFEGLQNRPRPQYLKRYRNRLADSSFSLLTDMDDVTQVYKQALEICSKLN

[3] = molecular target: T2, Serine/threonine-protein kinase Nek1 (Homo sapiens) (UniProt Q96PY6); test: Selectivity interaction (KinomeScan (DiscoverX)) EUB0000607a NEK1; settings: at 10 µM
T2 sequence (whole entry): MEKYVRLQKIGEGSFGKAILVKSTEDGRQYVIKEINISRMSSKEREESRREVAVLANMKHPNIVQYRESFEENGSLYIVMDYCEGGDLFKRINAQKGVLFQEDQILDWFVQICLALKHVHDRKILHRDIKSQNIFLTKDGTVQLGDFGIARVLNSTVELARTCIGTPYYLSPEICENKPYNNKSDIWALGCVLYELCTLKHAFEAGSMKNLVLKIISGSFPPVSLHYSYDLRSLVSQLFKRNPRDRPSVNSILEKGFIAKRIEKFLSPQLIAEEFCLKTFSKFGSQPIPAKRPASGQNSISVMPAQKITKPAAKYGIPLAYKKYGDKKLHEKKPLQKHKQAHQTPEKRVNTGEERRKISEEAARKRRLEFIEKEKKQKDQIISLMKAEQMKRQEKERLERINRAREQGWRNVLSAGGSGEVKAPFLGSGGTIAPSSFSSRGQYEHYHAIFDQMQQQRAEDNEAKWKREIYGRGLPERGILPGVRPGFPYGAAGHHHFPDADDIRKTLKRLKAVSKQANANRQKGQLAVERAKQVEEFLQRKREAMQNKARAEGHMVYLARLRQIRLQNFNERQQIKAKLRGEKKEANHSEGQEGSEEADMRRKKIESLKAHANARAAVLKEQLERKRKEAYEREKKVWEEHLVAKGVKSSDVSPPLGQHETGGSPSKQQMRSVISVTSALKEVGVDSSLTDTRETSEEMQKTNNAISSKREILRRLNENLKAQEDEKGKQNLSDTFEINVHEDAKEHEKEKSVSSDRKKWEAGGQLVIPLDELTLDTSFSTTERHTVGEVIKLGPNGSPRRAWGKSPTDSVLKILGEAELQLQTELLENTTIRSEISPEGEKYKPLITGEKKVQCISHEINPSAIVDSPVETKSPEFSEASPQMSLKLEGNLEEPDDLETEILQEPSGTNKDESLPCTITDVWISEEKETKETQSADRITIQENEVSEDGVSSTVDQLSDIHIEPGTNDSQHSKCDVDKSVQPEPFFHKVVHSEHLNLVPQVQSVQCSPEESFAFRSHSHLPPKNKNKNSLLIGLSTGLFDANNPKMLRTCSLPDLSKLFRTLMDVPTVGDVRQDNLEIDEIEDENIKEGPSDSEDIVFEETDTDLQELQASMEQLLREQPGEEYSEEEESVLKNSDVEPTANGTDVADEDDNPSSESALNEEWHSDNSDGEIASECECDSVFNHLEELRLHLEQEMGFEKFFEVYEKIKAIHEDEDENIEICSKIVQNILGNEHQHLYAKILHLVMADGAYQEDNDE

[4] = molecular target: Serine/threonine-protein kinase 38 (Homo sapiens) (UniProt Q15208); test: Selectivity interaction (ActivX KiNativ screen (kinase selectivity in THP-1 cell lysates)) EUB0000639a STK38; type: subcellular; settings: lysate, at 0.01 µM
[5] = molecular target: Casein kinase I isoform gamma-3 (Homo sapiens) (UniProt Q9Y6M4); settings: at 10 µM
[6] = molecular target: Proto-oncogene tyrosine-protein kinase Src (Homo sapiens, UniProt P12931); test: Selectivity interaction (KinomeScan (DiscoverX)) EUB0000092b SRC; settings: at 10 µM
Sequence of Proto-oncogene tyrosine-protein kinase Src (P12931 2-536 limits assumed): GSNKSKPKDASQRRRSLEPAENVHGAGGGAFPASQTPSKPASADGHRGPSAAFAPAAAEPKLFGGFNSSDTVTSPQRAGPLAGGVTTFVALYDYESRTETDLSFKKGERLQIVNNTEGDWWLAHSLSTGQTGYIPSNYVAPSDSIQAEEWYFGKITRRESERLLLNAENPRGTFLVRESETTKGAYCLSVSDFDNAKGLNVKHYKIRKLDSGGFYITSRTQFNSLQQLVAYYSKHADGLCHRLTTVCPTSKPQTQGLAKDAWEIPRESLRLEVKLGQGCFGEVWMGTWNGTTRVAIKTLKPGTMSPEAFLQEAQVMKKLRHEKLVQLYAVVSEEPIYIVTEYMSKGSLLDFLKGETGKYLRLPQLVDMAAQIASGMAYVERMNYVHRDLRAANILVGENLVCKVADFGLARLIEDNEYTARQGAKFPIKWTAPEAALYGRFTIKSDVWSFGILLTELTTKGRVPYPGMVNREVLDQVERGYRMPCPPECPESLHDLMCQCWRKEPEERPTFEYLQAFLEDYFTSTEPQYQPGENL

Sequence of Serine/threonine-protein kinase 38 (Homo sapiens) (Q15208 2-465 limits assumed): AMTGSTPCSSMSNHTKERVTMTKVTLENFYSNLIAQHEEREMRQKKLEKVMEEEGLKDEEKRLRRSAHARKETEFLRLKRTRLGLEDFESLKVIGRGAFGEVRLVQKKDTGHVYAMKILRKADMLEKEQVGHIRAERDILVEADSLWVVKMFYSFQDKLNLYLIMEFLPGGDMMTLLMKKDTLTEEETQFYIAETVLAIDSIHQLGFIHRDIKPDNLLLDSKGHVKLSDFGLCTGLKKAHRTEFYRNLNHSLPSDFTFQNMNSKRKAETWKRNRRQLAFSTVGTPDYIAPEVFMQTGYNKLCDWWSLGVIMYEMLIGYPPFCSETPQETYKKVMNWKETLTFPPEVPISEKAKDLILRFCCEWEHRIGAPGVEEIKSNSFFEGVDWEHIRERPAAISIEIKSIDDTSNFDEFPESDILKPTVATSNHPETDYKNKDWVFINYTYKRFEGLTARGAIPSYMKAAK
Sequence of Casein kinase I isoform gamma-1 (Homo sapiens) (Q9HCP0 whole entry, looked up, canonical isoform): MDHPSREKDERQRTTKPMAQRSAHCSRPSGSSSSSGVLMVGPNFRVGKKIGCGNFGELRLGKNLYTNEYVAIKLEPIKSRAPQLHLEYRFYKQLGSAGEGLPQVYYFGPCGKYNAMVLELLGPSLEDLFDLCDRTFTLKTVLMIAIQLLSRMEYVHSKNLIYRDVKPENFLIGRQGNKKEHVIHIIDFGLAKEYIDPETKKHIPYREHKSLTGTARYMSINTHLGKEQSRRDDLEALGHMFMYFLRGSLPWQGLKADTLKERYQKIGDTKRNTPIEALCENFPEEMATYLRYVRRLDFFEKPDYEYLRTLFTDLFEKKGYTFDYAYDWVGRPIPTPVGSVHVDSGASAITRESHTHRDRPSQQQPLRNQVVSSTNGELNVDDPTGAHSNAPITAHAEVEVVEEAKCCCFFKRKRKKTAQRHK
Sequence of Casein kinase I isoform gamma-3 (Homo sapiens) (Q9Y6M4 whole entry, looked up, canonical isoform): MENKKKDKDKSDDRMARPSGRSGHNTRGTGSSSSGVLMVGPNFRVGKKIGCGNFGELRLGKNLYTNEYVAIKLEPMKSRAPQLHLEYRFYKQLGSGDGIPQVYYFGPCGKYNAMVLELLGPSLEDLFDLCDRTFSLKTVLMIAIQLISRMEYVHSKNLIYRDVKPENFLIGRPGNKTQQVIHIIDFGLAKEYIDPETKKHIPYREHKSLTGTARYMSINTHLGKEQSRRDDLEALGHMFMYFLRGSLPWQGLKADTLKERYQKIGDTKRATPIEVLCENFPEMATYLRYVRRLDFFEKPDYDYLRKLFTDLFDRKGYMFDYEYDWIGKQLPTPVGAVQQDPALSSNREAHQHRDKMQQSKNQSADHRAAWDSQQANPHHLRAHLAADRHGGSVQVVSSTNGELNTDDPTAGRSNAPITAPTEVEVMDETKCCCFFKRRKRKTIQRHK

## Cc1cc([C@@H](C)Nc2ccccc2C(=O)O)c2nc(N3CCOCC3)cc(=O)n2c1 [AZD-6482]
[1]
  % of control: 68%

## Cn1cc(Nc2nccc(N3CC4CCC(C3)N4C(=O)[C@@H]3CC3(F)F)n2)cn1
[2]
  % of inhibition: 60%

## CNC(=O)Nc1ccc(-c2nc(N3CC4CCC(C3)O4)c3cnn(C4CCC5(CC4)OCCO5)c3n2)cc1
[3]
  % of control: 100%

## CC[C@@H]1[C@H](F)C(=O)N[C@@H]1COc1nccc2cc(C(N)=O)c(OC)cc12 [ZIMLOVISERTIB]
[4]
  % of inhibition: 1.5%

## CCN(CC)CCCCNc1ncc2cc(-c3cc(OC)cc(OC)c3)c(NC(=O)NC(C)(C)C)nc2n1
[5]
  % of control: 100%

## CCC(=O)N1CCN(c2ccc(-n3c(=O)ccc4cnc5ccc(-c6cnc7ccccc7c6)cc5c43)cc2C(F)(F)F)CC1
[6]
  % of control: 95%
